One series deals with mTOR kinase (Homo sapiens (Human), UniProt P42345). As to the kind of experiment: mTOR kinase activity assay (TR-FRET, GFP-4EBP1 substrate). The series is classed as biochemical. The conditions noted are these: read-out: Enzyme (mTOR) IC50. As for the experimental part: 1. mTOR Kinase Activity Assay: The inhibition of the mTOR protein kinase activity by the compounds was determined by the enzymatic activity assay in vitro. The detection kit supplied by Invitrogen was used to detect the inhibition of the activity of the mTOR […]. The principle of the assay was as follows: mTOR kinase, fluorescein-labeled substrate and ATP were mixed, and after the reaction, EDTA and terbium-labeled first antibody were added. During the chemical reaction process of the mTOR kinase, the antibody recognized the phosphorylated and fluorescein-labeled substrate, and then the “time-resolved fluorescence resonance energy transfer” (TR-FRET) effect was enhanced. TR-FRET effect was calculated as the ratio of signals from the acceptor fluorescein to signals from the donor terbium. The amount of the antibody bound to the tracer was directly proportional to the amount of the phosphorylated substrate after the reaction. In this way, the kinase activity can be detected. In this assay, the substrate of the mTOR kinase was green fluorescent protein-coupled 4E binding protein 1 (GFP-4EBP1).
1.1 Materials and Instruments:
4-Hydroxyethylpiperazine ethanesulfonic acid (HEPES, Sigma, Cat# SH3375), ethylene glycol-bis-(2-aminoethylether)-tetraacetic acid (EGTA, Sigma, Cat# E3889), manganese chloride (MnCl2, Sigma, Cat# M1787), Tween-20 (Tween-20, Amresco), 1,4-dithiothreitol (DTT, Merck, CB233155),

For a further series, the system named is PC-3. The series is described as follows: CTG cell survival assay, PC-3. The series is classed as cell-based. The conditions noted are these: Homo sapiens, PC-3 cells. The essentials: (§1)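 Cells were exposed to compounds in a 3-fold dilution series, with a top final concentration of 10 uM in 0.1% DMSO. Viable cells were quantified by CellTiter-Glo ATP luminescence.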

Another series has as its system MV-4-11. As to the kind of experiment: CTG cell survival assay, MV-4-11. The series is classed as cell-based. The conditions noted are these: Homo sapiens, MV4-11, MV-4-11 cells. In a few lines: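 Cells grown in RPMI 1640 with 10% FBS were plated and cultured 24 h at 37 °C, 5% CO2, then treated with compound diluted from 10 mM DMSO stocks. Viable cells were quantified as ATP by CellTiter-Glo luminescence.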

The test system of a further series is SK-BR3/BT474. The series is described as follows: CTG cell survival assay, SK-BR3/BT474. The series is classed as cell-based. The conditions noted are these: SK-BR3/BT474 cells. The essentials:
as §1

Series [1] is described as follows: Solubility test in common aqueous vehicles. The series is classed as physicochemical. The conditions noted are these: 25° C., pH = 3.

Consider 17 compounds from patent US10047084B2, “Imidazolone derivatives, pharmaceutical compositions and uses thereof” (BEIJING FORELANDPHARMA CO. LTD., priority 2013, dated 2018).

Chain of mTOR kinase (P42345 1360-2549): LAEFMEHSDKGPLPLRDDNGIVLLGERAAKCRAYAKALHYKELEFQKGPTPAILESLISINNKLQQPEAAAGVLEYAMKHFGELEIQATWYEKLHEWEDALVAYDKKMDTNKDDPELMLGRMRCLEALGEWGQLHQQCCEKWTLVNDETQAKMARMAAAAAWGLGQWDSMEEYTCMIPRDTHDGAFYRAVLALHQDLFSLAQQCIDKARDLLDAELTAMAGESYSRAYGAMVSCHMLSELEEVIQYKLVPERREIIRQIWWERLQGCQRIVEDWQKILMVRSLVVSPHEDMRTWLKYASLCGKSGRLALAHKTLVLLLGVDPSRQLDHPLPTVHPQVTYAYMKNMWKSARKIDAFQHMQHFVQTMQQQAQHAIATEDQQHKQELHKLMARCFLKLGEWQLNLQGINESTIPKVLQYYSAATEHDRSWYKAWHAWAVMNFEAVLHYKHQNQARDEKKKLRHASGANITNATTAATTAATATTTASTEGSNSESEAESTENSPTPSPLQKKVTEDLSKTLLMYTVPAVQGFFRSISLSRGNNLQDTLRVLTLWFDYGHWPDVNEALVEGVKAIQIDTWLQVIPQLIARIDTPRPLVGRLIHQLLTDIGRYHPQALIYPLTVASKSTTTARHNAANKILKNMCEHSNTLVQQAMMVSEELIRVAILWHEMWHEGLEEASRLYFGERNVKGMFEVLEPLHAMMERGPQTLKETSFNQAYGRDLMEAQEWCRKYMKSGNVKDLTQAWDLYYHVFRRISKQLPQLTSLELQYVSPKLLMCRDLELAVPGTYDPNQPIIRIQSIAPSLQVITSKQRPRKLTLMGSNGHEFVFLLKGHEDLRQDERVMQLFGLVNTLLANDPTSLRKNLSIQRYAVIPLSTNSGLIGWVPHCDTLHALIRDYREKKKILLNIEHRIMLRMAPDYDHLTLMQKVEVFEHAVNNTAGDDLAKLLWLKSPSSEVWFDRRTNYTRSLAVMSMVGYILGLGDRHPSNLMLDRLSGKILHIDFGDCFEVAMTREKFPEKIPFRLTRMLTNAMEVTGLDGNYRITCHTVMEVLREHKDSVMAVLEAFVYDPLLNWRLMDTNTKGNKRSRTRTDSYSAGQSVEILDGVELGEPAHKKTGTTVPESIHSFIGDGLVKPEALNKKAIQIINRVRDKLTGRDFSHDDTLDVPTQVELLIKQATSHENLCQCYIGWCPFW

Turning to `C[C@H](O)C(=O)N1CCCC(n2c(=O)n(C)c3cnc4ccc(-c5ccc(-c6cnn(C)c6)nc5)cc4c32)C1` (stereo partly drawn) [Example 4, 1-(1-((S)-2-hydroxypropionyl)piperidin-3-yl)-3-methyl-8-(6-(1-methyl-1H-pyrazol-4-yl)pyridin-3-yl)-1H-imidazo[4,5-c]quinolin-2(3H)-one], the IC50 on mTOR kinase was 10 to 100 nM. For the same compound, the EC50 is less than 200 nM in the series on PC-3, less than 500 nM with MV-4-11 and less than 500 nM in the series with SK-BR3/BT474.

Consider `CCS(=O)(=O)N1CCC[C@@H](n2c(=O)n(C)c3cnc4ccc(-c5ccc(-c6cnn(C)c6)nc5)cc4c32)C1` [Example 52, (R)-1-(1-(ethylsulfonyl)piperidin-3-yl)-3-methyl-8-(6-(1-methyl-1H-pyrazol-4-yl)pyridin-3-yl)-1H-imidazo[4,5-c]quinolin-2(3H)-one], for which the half-maximal effective concentration (EC50) in the series with PC-3 is less than 30 nM; with MV-4-11, less than 30 nM; in the series on SK-BR3/BT474 it was 50 nM. The solubility in series [1] (aqueous buffer, water) was greater than 1000 µg/mL.

For `COc1ncc(-c2ccc3ncc4c(c3c2)n([C@H]2CC[C@H](O)CC2)c(=O)n4C)cc1C` [Example 24, 1-((1r,4r)-4-hydroxycyclohexyl)-8-(6-methoxyl-5-methylpyridin-3-yl)-3-methyl-1H-imidazo[4,5-c]quinolin-2(3H)-one], the IC50 on mTOR kinase was in the range of 10 to 100 nM. Moreover, the concentration for a half-maximal effect (EC50) in the series on PC-3 was less than 200 nM; in the series on MV-4-11, less than 500 nM; in the series with SK-BR3/BT474, less than 500 nM.

In the case of `[2H]C([2H])([2H])n1c(=O)n(C2CCCN(S(C)(=O)=O)C2)c2c3cc(-c4ccc(-c5cnn(C)c5)nc4)ccc3ncc21` (stereo not shown) [Example 36, 3-deuteromethyl-8-(6-(1-methyl-1H-pyrazol-4-yl)pyridin-3-yl)-1-(1-(methanesulfonyl)piperidin-3-yl)-1H-imidazo[4,5-c]quinolin-2(3H)-one], on mTOR kinase, the half-inhibitory concentration (IC50) is less than 10 nM. Besides, the values for the concentration for a half-maximal effect (EC50) with MV-4-11 and in the series with SK-BR3/BT474 were less than 200 nM and less than 500 nM, respectively.

On to `Cn1cc(-c2ccc(-c3ccc4ncc5c(c4c3)n(C3CCN(S(C)(=O)=O)C3)c(=O)n5C)cn2)cn1` (stereo not shown) [Example 6, 3-methyl-8-(6-(1-methyl-1H-pyrazol-4-yl)pyridin-3-yl)-1-(1-(methanesulfonyl)pyrrolidin-3-yl)-1H-imidazo[4,5-c]quinolin-2 (3H)-one], for which the concentration for half-maximal inhibition (IC50) at mTOR kinase is less than 10 nM. The EC50 is less than 50 nM in the series with PC-3, less than 200 nM with MV-4-11 and less than 50 nM with SK-BR3/BT474.

For `Cn1c(=O)n([C@H]2CC[C@@H](O)CC2)c2c3cc(-c4cnn(-c5ccccc5)c4)ccc3ncc21` [Example 21, 1-((1s,4s)-4-hydroxycyclohexyl)-3-methyl-8-(1-phenyl-1H-pyrazol-4-yl)-1H-imidazo[4,5-c]quinolin-2(3H)-one], the IC50 at mTOR kinase lay in the range of 10 to 100 nM. Besides, the half-maximal effective concentration (EC50) was less than 500 nM with PC-3, less than 200 nM with MV-4-11 and less than 500 nM with SK-BR3/BT474.

Turning to `Cn1c(=O)n([C@H]2CC[C@H](O)CC2)c2c3cc(-c4cnn(-c5ccccc5)c4)ccc3ncc21` [Example 23, 1-((1r,4r)-4-hydroxycyclohexyl)-3-methyl-8-(1-phenyl-1H-pyrazol-4-yl)-1H-imidazo[4,5-c]quinolin-2(3H)-one], the 50% inhibitory concentration (IC50) on mTOR kinase is 10 to 100 nM. The EC50 with PC-3 is less than 200 nM; in the series with MV-4-11, less than 500 nM; in the series with SK-BR3/BT474, less than 500 nM.

`Cn1c(=O)n([C@H]2CC[C@@H](O)CC2)c2c3cc(-c4ccc(-c5ccccc5)nc4)ccc3ncc21` [Example 19, 1-((1s,4s)-4-hydroxycyclohexyl)-3-methyl-8-(6-phenylpyridin-3-yl)-1H-imidazo[4,5-c]quinolin-2(3H)-one]: the IC50 on mTOR kinase was less than 10 nM. The EC50 in the series with PC-3 is less than 50 nM; in the series on MV-4-11 it was less than 200 nM; with SK-BR3/BT474 it was less than 100 nM. This compound also gave a solubility in series [1] (aqueous with cosolvent or surfactant or cyclodextrin, 30% hydroxypropyl-β-cyclodextrin) greater than 1000 µg/mL.

For `CCN1CCC(n2c(=O)n(C)c3cnc4ccc(-c5ccc(-c6cnn(C)c6)nc5)cc4c32)C1` (stereo not shown) [Example 10, 1-(1-ethylpyrrolidin-3-yl)-3-methyl-8-(6-(1-methyl-1H-pyrazol-4-yl)pyridin-3-yl)-1H-imidazo[4,5-c]quinolin-2(3H)-one], on mTOR kinase, the IC50 lay within 100 to 1000 nM. In addition, the figures for the EC50 in the series with PC-3, in the series on MV-4-11 and in the series on SK-BR3/BT474 were less than 200 nM, less than 1000 nM and less than 1000 nM, respectively.

`Cn1cc(-c2ccc(-c3ccc4ncc5c(c4c3)n([C@H]3CC[C@H](O)CC3)c(=O)n5C)cn2)cn1` [Example 17, 1-((1r,4r)-4-hydroxycyclohexyl)-3-methyl-8-(6-(1-methyl-1H-pyrazol-4-yl)pyridin-3-yl)-1H-imidazo[4,5-c]quinolin-2(3H)-one]: the IC50 on mTOR kinase was less than 10 nM. The half-maximal effective concentration (EC50) in the series with PC-3 was less than 100 nM; with MV-4-11, less than 500 nM; with SK-BR3/BT474 it was less than 200 nM.

On to `Cn1cc(-c2ccc(-c3ccc4ncc5c(c4c3)n(C3CCCC(O)C3)c(=O)n5C)cn2)cn1` (stereo not shown) [Example 32, 1-(3-hydroxycyclohexyl)-3-methyl-8-(6-(1-methyl-1H-pyrazol-4-yl)pyridin-3-yl)-1H-imidazo[4,5-c]quinolin-2(3H)-one], for which the IC50 on mTOR kinase was less than 10 nM. Further, the EC50 in the series on PC-3 is less than 50 nM; with MV-4-11, less than 200 nM; in the series with SK-BR3/BT474, less than 100 nM.

For the compound `Cn1c(=O)n([C@H]2CCN(S(C)(=O)=O)C2)c2c3cc(-c4ccc(-c5ccccc5)nc4)ccc3ncc21` [Example 30, (S)-3-methyl-1-(1-(methanesulfonyl)pyrrolidin-3-yl)-8-(6-phenylpyridin-3-yl)-1H-imidazo[4,5-c]quinolin-2(3H)-one], at mTOR kinase, the IC50 was less than 10 nM. Also, the EC50 with MV-4-11 and in the series with SK-BR3/BT474 was less than 100 nM in each case.

Regarding `CCS(=O)(=O)N1CC[C@H](n2c(=O)n(C)c3cnc4ccc(-c5ccc(-c6cnn(C)c6)nc5)cc4c32)C1` [Example 29, (S)-1-(1-(ethylsulfonyl)pyrrolidin-3-yl)-3-methyl-8-(6-(1-methyl-1H-pyrazol-4-yl)pyridin-3-yl)-1H-imidazo[4,5-c]quinolin-2(3H)-one], the half-maximal inhibitory concentration (IC50) on mTOR kinase was less than 10 nM. Moreover, the EC50 in the series on MV-4-11 and in the series on SK-BR3/BT474 was less than 100 nM in each case.

`Cc1ccc(-c2ccc3ncc4c(c3c2)n([C@H]2CC[C@@H](O)CC2)c(=O)n4C)cn1` [Example 22, 1-((1s,4s)-4-hydroxycyclohexyl)-3-methyl-8-(6-methylpyridin-3-yl)-1H-imidazo[4,5-c]quinolin-2(3H)-one]: at mTOR kinase, the IC50 fell in the range of 10 to 100 nM. The concentration for a half-maximal effect (EC50) in the series with PC-3, with MV-4-11 and with SK-BR3/BT474 was less than 200 nM each time.

As for `Cn1cc(-c2ccc(-c3ccc4ncc5c(c4c3)n(C3CCCN(C(=O)CO)C3)c(=O)n5C)cn2)cn1` (stereo not shown) [Example 1, 1-(1-(2-hydroxyacetyl)piperidin-3-yl)-3-methyl-8-(6-(1-methyl-1H-pyrazol-4-yl)pyridin-3-yl)-1H-imidazo[4,5-c]quinolin-2(3H)-one], at mTOR kinase, the IC50 is 10 to 100 nM. For the same compound, the half-maximal effective concentration (EC50) in the series with PC-3 is less than 200 nM; in the series on MV-4-11, less than 1000 nM; in the series with SK-BR3/BT474 it was less than 500 nM. The same compound showed a solubility in series [1] (aqueous buffer, water) greater than 1000 µg/mL.

`COc1ncc(-c2ccc3ncc4c(c3c2)n([C@H]2CC[C@@H](O)CC2)c(=O)n4C)cc1C` [Example 20, 1-((1s,4s)-4-hydroxycyclohexyl)-8-(6-methoxyl-5-methylpyridin-3-yl)-3-methyl-1H-imidazo[4,5-c]quinolin-2(3H)-one]: the concentration for half-maximal inhibition (IC50) at mTOR kinase lay within 10 to 100 nM. Further, the 50% effective concentration (EC50) in the series with PC-3 was less than 200 nM; in the series on MV-4-11, less than 200 nM; in the series with SK-BR3/BT474, less than 500 nM.

In the case of `C[C@@H](O)C(=O)N1CCCC(n2c(=O)n(C)c3cnc4ccc(-c5ccc(-c6cnn(C)c6)nc5)cc4c32)C1` (stereo partly drawn) [Example 5, 1-(1-((R)-2-hydroxypropionyl)piperidin-3-yl)-3-methyl-8-(6-(1-methyl-1H-pyrazol-4-yl)pyridin-3-yl)-1H-imidazo[4,5-c]quinolin-2(3H)-one], on mTOR kinase, the IC50 was less than 10 nM. Further, the EC50 is less than 500 nM in the series with PC-3, less than 500 nM with MV-4-11 and less than 200 nM with SK-BR3/BT474.

As a reminder, the IC50 is the concentration that inhibits the measured activity by half. One may read the EC50 as the midpoint of the concentration-response curve. A lower EC50 goes with higher potency in that assay. In general, solubility refers to the dissolved amount per volume that the medium holds. Higher therefore signals much dissolved substance.
